This note sets out measurements from patent US20080312230A1, “Organic Compounds” (Novartis AG, priority 2005, published 2008).

The first test concerns the target T1, CRTh2 receptor (Homo sapiens, UniProt Q9Y5Y4).
T1 construct: expressed in transfected cells; host or cells: CHO.K1 (Chinese Hamster Ovary)
T1 sequence (Q9Y5Y4 1-395): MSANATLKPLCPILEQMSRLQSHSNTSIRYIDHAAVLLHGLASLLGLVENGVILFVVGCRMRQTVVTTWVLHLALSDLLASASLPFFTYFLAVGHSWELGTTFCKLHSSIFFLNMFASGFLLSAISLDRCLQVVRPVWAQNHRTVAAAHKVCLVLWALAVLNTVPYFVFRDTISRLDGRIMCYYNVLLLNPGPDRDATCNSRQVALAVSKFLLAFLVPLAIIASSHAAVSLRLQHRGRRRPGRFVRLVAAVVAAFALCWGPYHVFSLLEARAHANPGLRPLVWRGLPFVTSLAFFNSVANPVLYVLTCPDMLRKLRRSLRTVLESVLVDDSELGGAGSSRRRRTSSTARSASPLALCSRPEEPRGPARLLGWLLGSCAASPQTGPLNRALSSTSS
Put plainly: Filtration binding assay: [3H]-PGD2 competition on CHO.K1-CRTh2 membranes. Particulars: competition with 2.5 nM [3H]-PGD2, CHO.K1-CRTh2 membranes, Cheng-Prussoff; read-out: Ki values in the SPA binding assay. The method, then:
Filtration Binding Assay Protocol
The binding of CRTh2 antagonists is determined using membranes prepared from human CRTh2-expressing Chinese Hamster Ovary cells (CHO.K1-CRTh2). To produce cell membranes CHO.K1-CRTh2 cells cultured in roller bottles are harvested using cell dissociation buffer (Invitrogen). The cells are pelleted by centrifugation (167 g, 5 min). The cell pellet is incubated in hypotonic buffer (15 mM Tris-OH, 2 mM MgCl2, 0.3 mM EDTA, 1 mM EGTA, 1× Complete™ tablet) at 4° C. for 30 min. At 4° C. cells are homogenized using a Polytron® (IKA Ultra Turrax T25) for 5 bursts of 1 second. The homogenate is centrifuged (Beckman Optima TM TL Ultracentrifuge, 48000 g, 30 min at 4° C.). The supernatant is discarded and the membrane pellet resuspended in homogenisation buffer (75 mM Tris-OH, 12.5 mM MgCl2, 0.3 mM EDTA, 1 mM EGTA, 250 mM Sucrose, 1× Complete™ tablet. Membrane preparations are aliquoted and stored at […]. The protein content is estimated using Bradford Protein Assay Dye (Bio Rad).
The binding of [^3H]-PGD2 (157 Ci/mmol) to CHO.K1-CRTh2 membranes is determined in the absence (total binding) and presence (non-specific binding) of unlabelled PGD2 (1 μM). Subtraction of the cpm (counts per minute) of [^3H]-PGD2 binding in presence of excess unlabelled PGD2 from that observed in the absence of excess unlabelled PGD2 is defined as specific binding. Active CRTh2 antagonists are able to compete with [^3H]-PGD2 for binding to the CRTh2 receptor and are identified in a decrease in the number of cpm bound.
The assay is performed in Greiner U-bottomed 96 well-plates, in a final volume of 100 μl per well. CHO.K1-CRTh2 membranes were diluted in assay buffer (10 mM HEPES-KOH (pH 7.4), 1 mM EDTA and 10 mM MnCl2) and 10 μg are added to each well. [^3H]-PGD2 is diluted in assay buffer and added to each well at a final concentration of 2.5 nM. To determine non-specific binding, [^3H]-PGD2 binding to the CRTh2 receptor is competed with using unlabelled PGD2 at a final well concentration of 1 μM. The experiment is done in triplicate, with reagents added to the wells as follows:
25 μL assay buffer for total binding or
25 μL PGD2 to determine non-specific binding
25 μL test compound in DMSO/assay buffer
The plates are incubated at room temperature on a shaker for 1 hour, and then harvested (Tomtec Harvester 9600) onto GF/C filter plates using wash buffer (10 mM HEPES-KOH, pH 7.4). The plate is dried for 2 hours, prior to addition of Micro-Scint 20™ (50 μL) and sealing with TopSeal-S™. Plates are then counted using a Packard Top Count instrument, Plates are then read on the Packard Topcount with the 3H Scintillation program (1 min per well).
Ki (dissocation constant for the inhibition) values for the CRTh2 antagonists are reported. Ki values are determined using Sigma Plot™ software, using the Cheng-Prussoff equation.
Where S is the Concentration of Radioligand and Kd is the Dissociation Constant.
Turning to `Cc1c(CC(=O)O)c2cccnc2n1C(C)c1ccc(Cl)cc1` (stereo not drawn) [Example 84, {1-[1-(4-Chloro-phenyl)-ethyl]-2-methyl-1H-pyrrolo[2,3-b]pyridin-3-yl}-acetic acid], the inhibition constant (Ki) (commonly a dissociation constant, usually derived from enzyme kinetics or from competition with a known ligand) was found to be 100 nM.

As to `Cc1c(CC(=O)O)c2cccnc2n1Cc1ccc(S(C)(=O)=O)cc1Cl` [Example 90, [1-(2-Chloro-4-methanesulfonyl-benzyl)-2-methyl-1H-pyrrolo[2,3-b]pyridin-3-yl]-acetic acid], the inhibition constant (Ki) was 3 nM.

`CCCOc1cc(S(=O)(=O)n2c(C)c(CC(=O)O)c3cccnc32)ccc1C#N` [Example 130, [1-(4-Cyano-3-propoxy-benzenesulfonyl)-2-methyl-1H-pyrrolo[2,3-b]pyridin-3-yl]-acetic acid]: the inhibition constant (Ki) turned out to be 50 nM.

Take `Cc1c(CC(=O)O)c2cccnc2n1C(C)c1ccc(C(F)(F)F)cc1` (stereo not drawn) [Example 115, {2-Methyl-1-[1-(4-trifluoromethyl-phenyl)-ethyl]-1H-pyrrolo[2,3-b]pyridin-3-yl}-acetic acid]: the inhibition constant Ki is 45 nM.

Consider `Cc1cc(S(C)(=O)=O)ccc1Cn1c(C)c(CC(=O)O)c2cccnc21` [Example 112, [1-(4-Methanesulfonyl-2-methyl-benzyl)-2-methyl-1H-pyrrolo[2,3-b]pyridin-3-yl]-acetic acid], for which the inhibition constant Ki was found to be 31 nM.

`Cc1c(CC(=O)O)c2cccnc2n1Cc1ccc([N+](=O)[O-])cc1` [Example 122, [2-Methyl-1-(4-nitro-benzyl)-1H-pyrrolo[2,3-b]pyridin-3-yl]-acetic acid]: the inhibition constant (Ki) stood at 147 nM.

Take `Cc1c(CC(=O)O)c2ccc(Cl)nc2n1Cc1ccc(S(C)(=O)=O)cc1` [Example 99, [6-Chloro-1-(4-methanesulfonyl-benzyl)-2-methyl-1H-pyrrolo[2,3-b]pyridin-3-yl]-acetic acid]: the inhibitory constant (Ki) worked out at 12 nM.

With `Cc1c(CC(=O)O)c2cccnc2n1Cc1ccc(S(C)(=O)=O)c(C(F)(F)F)c1` [Example 92, [1-(4-Methanesulfonyl-3-trifluoromethyl-benzyl)-2-methyl-1H-pyrrolo[2,3-b]pyridin-3-yl]-acetic acid], the Ki was found to be 22 nM.

Turning to `Cc1c(CC(=O)O)c2cccnc2n1C(C)c1ccc(S(C)(=O)=O)cc1` (single isomer, unassigned) [Example 97, {1-[1-(4-Methanesulfonyl-phenyl)-ethyl]-2-methyl-1H-pyrrolo[2,3-b]pyridin-3-yl}-acetic acid], the Ki stood at 11 nM.

In the case of `CCS(=O)(=O)c1ccc(Cn2c(C)c(CC(=O)O)c3cccnc32)c(Cl)c1` [Example 94, [1-(2-Chloro-4-ethanesulfonyl-benzyl)-2-methyl-1H-pyrrolo[2,3-b]pyridin-3-yl]-acetic acid], the inhibition constant (Ki) was determined as 7 nM.

Turning to `Cc1c(CC(=O)O)c2cccnc2n1Cc1ccc(S(C)(=O)=O)c(Cl)c1` [Example 125, [1-(3-Chloro-4-methanesulfonyl-benzyl)-2-methyl-1H-pyrrolo[2,3-b]pyridin-3-yl]-acetic acid], the Ki was found to be 27 nM.

As for `Cc1c(CC(=O)O)c2cccnc2n1Cc1ccc(C(F)(F)F)cc1C(F)(F)F` [Example 119, [1-(2,4-Bis-trifluoromethyl-benzyl)-2-methyl-1H-pyrrolo[2,3-b]pyridin-3-yl]-acetic acid], the Ki is 29 nM.

For the compound `Cc1c(CC(=O)O)c2cccnc2n1C(C)c1ccc(S(C)(=O)=O)cc1` (stereo not drawn) [Example 117, {1-[1-(4-Methanesulfonyl-phenyl)-ethyl]-2-methyl-1H-pyrrolo[2,3-b]pyridin-3-yl}-acetic acid], the Ki came to 25 nM.

For the compound `COc1cc(S(=O)(=O)n2c(C)c(CC(=O)O)c3cccnc32)ccc1C#N` [Example 129, [1-(4-Cyano-3-methoxy-benzenesulfonyl)-2-methyl-1H-pyrrolo[2,3-b]pyridin-3-yl]-acetic acid], the inhibition constant Ki is 43 nM.

On to `CCS(=O)(=O)c1ccc(Cn2c(C)c(CC(=O)O)c3cccnc32)c(C(F)(F)F)c1` [Example 93, [1-(4-Ethanesulfonyl-2-trifluoromethyl-benzyl)-2-methyl-1H-pyrrolo[2,3-b]pyridin-3-yl]-acetic acid], for which the inhibitory constant (Ki) came out at 8 nM.

For the compound `Cc1c(CC(=O)O)c2cccnc2n1S(=O)(=O)c1ccc(Cl)c(C#N)c1` [Example 103, [1-(4-Chloro-3-cyano-benzenesulfonyl)-2-methyl-1H-pyrrolo[2,3-b]pyridin-3-yl]-acetic acid], the Ki was determined as 35 nM.

Consider `COc1cc(S(=O)(=O)n2c(C)c(CC(=O)O)c3cccnc32)ccc1Cl` [Example 148, [1-(4-Chloro-3-methoxy-benzenesulfonyl)-2-methyl-1H-pyrrolo[2,3-b]pyridin-3-yl]-acetic acid], for which the Ki came out at 64 nM.

Consider `Cc1c(CC(=O)O)c2cccnc2n1Cc1ccc(S(=O)(=O)C(C)C)cc1` [Example 105, {2-Methyl-1-[4-(propane-2-sulfonyl)-benzyl]-1H-pyrrolo[2,3-b]pyridin-3-yl}-acetic acid], for which the inhibition constant Ki was 98 nM.

Consider `COc1cc(S(=O)(=O)n2c(C)c(CC(=O)O)c3cccnc32)ccc1F` [Example 102, [1-(4-Fluoro-3-methoxy-benzenesulfonyl)-2-methyl-1H-pyrrolo[2,3-b]pyridin-3-yl]-acetic acid], for which the inhibitory constant (Ki) worked out at 56 nM.

As for `Cc1c(CC(=O)O)c2cccnc2n1Cc1ccc(S(C)(=O)=O)cc1` [Example 96], the Ki is 29 nM.

Consider `CCOc1cc(S(=O)(=O)n2c(C)c(CC(=O)O)c3cccnc32)ccc1C#N` [Example 127, [1-(4-Cyano-3-ethoxy-benzenesulfonyl)-2-methyl-1H-pyrrolo[2,3-b]pyridin-3-yl]-acetic acid], for which the inhibition constant Ki was determined as 43 nM.

Take `Cc1c(CC(=O)O)c2ccc(Cl)nc2n1Cc1ccc(S(C)(=O)=O)cc1C(F)(F)F` [Example 100, [6-Chloro-1-(4-methanesulfonyl-2-trifluoromethyl-benzyl)-2-methyl-1H-pyrrolo[2,3-b]pyridin-3-yl]-acetic acid]: the inhibition constant Ki is 5 nM.

The target of the next test is T1, CRTh2 receptor. Put plainly: CRTH2 cAMP functional assay in CHO.K1-CRTh2 cells. The class given is cell-based.
Conditions: not given
As for the experimental part: The assay plate is incubated at room temperature on a shaker for 15 minutes.
A mix of agonist (10 nM Prostaglandin D2) and 5 μM forskolin is prepared in assay stimulation buffer and added to the assay plate (5 μL/well).
In addition, a cAMP standard is serially diluted in assay stimulation buffer and added to separate empty wells on the assay plate (20 μL/well).
The assay plate is incubated at room temperature on a shaker for 60 minutes.
The resulting lysis mix is added to all wells of the assay plate (40 μL/well).
The assay plate is sealed with Topseal-S™ and incubated in the dark at room temperature on a shaker for 45 minutes. The plate is then counted using a Packard Fusion™ instrument.
The resulting counts per minute are converted to nM cAMP by using the prepared cAMP standard curve.
As for `Cc1c(CC(=O)O)c2cccnc2n1C(C)c1ccc(Cl)cc1` (stereo not drawn) [Example 84, {1-[1-(4-Chloro-phenyl)-ethyl]-2-methyl-1H-pyrrolo[2,3-b]pyridin-3-yl}-acetic acid], the 50% inhibitory concentration (IC50) (in general, the concentration that inhibits the measured activity by half) is 84 nM.

In turn, `Cc1c(CC(=O)O)c2cccnc2n1S(=O)(=O)c1ccc([N+](=O)[O-])cc1` [Example 3] came in with an IC50 of 276 nM.
